# Key:
# [1] = Inhibition of beta-lactamase TEM-1
# [2] = Inhibition of beta-lactamase PDC-3
IC50 [1] [µM],IC50 [2] [µM],Compound
8.4,> 50,CC1(C)[C@H](C(=O)O)N2C(=O)[C@@H](N)[C@H]2S1(=O)=O
> 50,,CC(C)(C)C(=O)NC[C@@H]1C(=O)N2[C@@H](C(=O)O)C(C)(C)S(=O)(=O)[C@H]12
> 50,,CC1(C)[C@H](C(=O)O)N2C(=O)[C@@H](CCO)[C@H]2S1(=O)=O
> 50,,COc1cccc(OC)c1C(=O)N[C@@H]1C(=O)N2[C@@H](C(=O)O)C(C)(C)S(=O)(=O)[C@H]12
> 50,,CC1(C)[C@H](C(=O)O)N2C(=O)[C@@H](NCC(=O)O)[C@H]2S1(=O)=O
> 50,,CC1(C)[C@H](C(=O)O)N2C(=O)[C@@H](CCCO)[C@H]2S1(=O)=O
> 50,,C=CCOC(=O)NC[C@@H]1C(=O)N2[C@@H](C(=O)O)C(C)(C)S(=O)(=O)[C@H]12
> 50,> 50,CC1(C)[C@H](C(=O)O)N2C(=O)[C@@H](NC(=O)Cc3ccccc3)[C@H]2S1(=O)=O
6.1,,CC1(C)[C@H](C(=O)O)N2C(=O)[C@@H](CNS(=O)(=O)C(F)(F)F)[C@H]2S1(=O)=O
> 50,> 50,CC1(C)[C@H](C(=O)O)N2C(=O)[C@@H](CC(=O)NO)[C@H]2S1(=O)=O
> 50,,CC1(C)[C@H](C(=O)O)N2C(=O)[C@@H](CC(=O)O)[C@H]2S1(=O)=O
0.45,> 50,CC1(C)[C@H](C(=O)O)N2C(=O)[C@@H](CN)[C@H]2S1(=O)=O
> 50,> 50,CC1(C)[C@H](C(=O)O)N2C(=O)[C@@H](CC(O)O)[C@H]2S1(=O)=O
> 50,,Cc1onc(-c2ccccc2)c1C(=O)N[C@@H]1C(=O)N2[C@@H](C(=O)O)C(C)(C)S(=O)(=O)[C@H]12
0.18,,CC1(C)[C@H](C(=O)O)N2C(=O)[C@@H]([C@@H](O)C(=O)N3CCCC3)[C@H]2S1(=O)=O
> 50,,CC1(C)[C@H](C(=O)O)N2C(=O)[C@@H](CNC(=O)Cc3ccccc3)[C@H]2S1(=O)=O
> 50,,CC1(C)[C@H](C(=O)O)N2C(=O)[C@@H](NS(=O)(=O)C(F)(F)F)[C@H]2S1(=O)=O

Compound,IC50 [1] [µM],IC50 [2] [µM]
CC1(C)[C@H](C(=O)O)N2C(=O)[C@@H]([C@@H](O)CN)[C@H]2S1(=O)=O,1.2,1.2
C=CC[C@@H]1C(=O)N2[C@@H](C(=O)OC(c3ccccc3)c3ccccc3)C(C)(C)S(=O)(=O)[C@H]12,35,1.2
CC1(C)[C@H](C(=O)O)N2C(=O)C[C@H]2S1(=O)=O [SULBACTAM],,4.3

# — ChEMBL document CHEMBL1641562, “Modifications of the C6-substituent of penicillin sulfones with the goal of improving inhibitor recognition and efficacy” (Bioorg Med Chem Lett, 2011)
